Where a SMILES comes first, the peptide text is derived from it.

This is an account of results in paper PMC5413351, “Structural basis of protein translocation by the Vps4-Vta1 AAA ATPase” (eLife, 2017).

The assay deals with T1, Vps4^101-437-Hcp1 (UniProt P52917+Q9I747).
T1 construct: 6xHis (TEV-cleavable) (N, cleaved yes); Pseudomonas aeruginosa Hcp1 fusion partner (candidate entry Q9I747, HCP1_PSEAE); made in house; host or cells: E. coli BL21(DE3)RIL
T1 sequence (P52917+Q9I747 with tags, fused parts or gaps): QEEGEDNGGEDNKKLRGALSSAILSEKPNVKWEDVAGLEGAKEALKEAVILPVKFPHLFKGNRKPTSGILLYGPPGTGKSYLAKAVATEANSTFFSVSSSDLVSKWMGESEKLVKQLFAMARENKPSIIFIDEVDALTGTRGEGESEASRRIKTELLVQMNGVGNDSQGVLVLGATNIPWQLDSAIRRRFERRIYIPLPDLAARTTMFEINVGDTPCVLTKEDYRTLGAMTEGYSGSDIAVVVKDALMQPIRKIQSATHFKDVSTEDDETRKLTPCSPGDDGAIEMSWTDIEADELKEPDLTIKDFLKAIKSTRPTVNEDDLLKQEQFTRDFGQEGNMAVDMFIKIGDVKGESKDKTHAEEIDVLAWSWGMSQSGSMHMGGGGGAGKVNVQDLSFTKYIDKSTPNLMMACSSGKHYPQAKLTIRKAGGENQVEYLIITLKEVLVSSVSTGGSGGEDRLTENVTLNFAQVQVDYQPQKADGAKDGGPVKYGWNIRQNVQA
T1 sequence (Q06263 280-330 partner limits assumed): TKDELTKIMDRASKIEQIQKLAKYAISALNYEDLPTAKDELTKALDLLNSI
The experiment in a line: Fluorescence polarization binding of fluorescently labeled ESCRT-III peptide to Vps4^101-437-Hcp1. Further details: species or system S. cerevisiae. The following applies: 2:1 Vta1^VSL:Vps4 subunits, 1 mM ADP·BeFx, 1 nM fluorescent peptide, 20 mM HEPES pH 7.4, 100 mM NaCl, 10 mM MgCl2, 1 mM DTT, room temperature; per Vps4 hexamer; global fit of four independent experiments. As for the experimental part: Fluorescence polarization assay for ESCRT-III peptide binding
When equilibrium was reached, parallel and perpendicular fluorescence intensities were measured on a Biotek Synergy Neo HTS microplate reader using an excitation wavelength of 485 nm and an emission wavelength of 528 nm.

The Kd is the constant that tells how readily two partners part at equilibrium. On to `CC[C@H](C)[C@H](NC(=O)[C@H](CCC(=O)O)NC(=O)[C@H](CC(=O)O)NC(=O)[C@H](CC(C)C)NC(=O)[C@@H](NC(=O)[C@H](CCCCN)NC(=O)[C@H](CC(N)=O)NC(=O)[C@@H](NC(=O)[C@@H](NC(=O)[C@H](CCC(=O)O)NC(=O)[C@H](CC(=O)O)NC(=O)c1ccc2c(c1)C(=O)OC21c2ccc(O)cc2Oc2cc(O)ccc21)[C@@H](C)CC)C(C)C)C(C)C)C(=O)NCC(=O)N[C@H](C(=O)N[C@@H](CC(=O)O)C(=O)N[C@@H](CC(C)C)C(=O)N[C@@H](CC(N)=O)C(=O)N[C@@H](CO)C(=O)N[C@@H](CCC(N)=O)C(=O)N[C@@H](CC(C)C)C(=O)N[C@@H](CCC(N)=O)C(N)=O)C(C)C` [Peptide ‘20’] (HELM PEPTIDE1{[O=C1OC2(c3ccc(O)cc3Oc3cc(O)ccc32)c2ccc(C(=O)[*:2])cc21].D.E.I.V.N.K.V.L.D.E.I.G.V.D.L.N.S.Q.L.Q.[am]}$$$$V2.0), for which the Kd was found to be 178 nM.
